Each structure is given as a SMILES string.

LC retention time data for 95 molecules are collected here from the RepoRT retention time repository (doi:10.1016/j.chroma.2012.12.030).

This data set is described as follows: RP, Waters ACQUITY UPLC BEH C18, 100 × 2.1 mm, 1.7 µm, 60 °C, 0.3 mL/min, estimated dead time 0.73 min; A: water + 0.01% formic acid; B: methanol + 0.01% formic acid; gradient (min/%B) 0/10 14/90 16/90. The settings on record: stereoisomer not certain.
Take `COc1ccc(C(CN(C)C)C2(O)CCCCC2)cc1` (stereo not given): the LC retention time is 6.34 min.
Then `CC12CCC3c4ccc(O)cc4CCC3C1CCC2=O` (stereo not given), with 9.99 min.
Next, `CCNC(C)Cc1ccc2c(c1)OCO2` (stereo not given): 3.48 min; `CCNc1nc(NC(C)C)[nH]c(=O)n1`: 3.93 min.
Then `COc1cc2c(c3oc(=O)c4c(c13)CCOC4=O)C1CCOC1O2` (stereo not given), with 5.93 min.
In the case of `CC12CCC3c4ccc(O)cc4CCC3C1CC(O)C2O` (stereo not given), the LC retention time is 6.96 min.
Next, `CCOC(=O)CC(SP(=S)(OC)OC)C(=O)OCC` (stereo not given): 11 min; `CC12CCC3c4ccc(OS(=O)(=O)O)cc4CCC3C1CCC2O` (stereo not given): 10.4 min.
Then `CC(=O)O[Si](CCCC(O)COC(=O)c1ccc(O)cc1)(OC(C)=O)c1ccccc1` (stereo not given), with 5.92 min.
Next, `CC(COc1ccc(Oc2ccccc2)cc1)Oc1ccccn1` (stereo not given): 13.4 min; `O=C(c1ccc(O)cc1O)c1ccc(O)cc1O`: 6.4 min.
For `CC(C)c1ccc(NC(=O)N(C)C)cc1`, the LC retention time is 8.83 min.
Then `CCC(=C(CC)c1ccc(O)cc1)c1ccc(O)cc1`, with 10.3 min; and `CCC1OC(=O)C(C)C(OC2CC(C)(OC)C(O)C(C)O2)C(C)C(OC2OC(C)CC(N(C)C)C2O)C(C)(OC)CC(C)C(=O)C(C)C(O)C1(C)O` (stereo not given), with 9.78 min.
Next, `CCn1cc(C(=O)O)c(=O)c2ccc(C)nc21`: 7.1 min.
Next, `O=C(O)c1ccccc1O`: 4.8 min; `COc1cc2c(c3oc(=O)c4c(c13)CCC4=O)C1CCOC1O2` (stereo not given): 6.76 min.
In the case of `CC(N)Cc1ccccc1` (stereo not given), the LC retention time was 2.8 min.
Next, `CCC1OC(=O)C(C)C(OC2CC(C)(OC)C(O)C(C)O2)C(C)C(OC2OC(C)CC(N(C)C)C2O)C(C)(O)CC(C)CN(C)C(C)C(O)C1(C)O` (stereo not given): 6.2 min; `CCOC(=O)c1ccc(O)cc1`: 7.54 min.
Turning to `COc1cc(Cc2cnc(N)nc2N)cc(OC)c1OC`, the LC retention time was 3.15 min.
On to `COc1cc2c(c3oc(=O)c4c(c13)CCC4=O)C1C=COC1O2` (stereo not given), for which the LC retention time was 7.15 min.
For the molecule `CCOC(=O)C1C(OC(=O)c2ccccc2)CC2CCC1N2C` (stereo not given), the LC retention time was 5.78 min.
Regarding `CC(C)N1C(=O)c2ccccc2NS1(=O)=O`, the LC retention time was 6.66 min.
Then `O=C1OC(CN2CCOCC2)CN1N=Cc1ccc([N+](=O)[O-])o1` (stereo not given), with 2.64 min.
Next, `c1ccc2[nH]c(-c3cscn3)nc2c1`: 4.8 min; `CCOC(=O)C(CCc1ccccc1)NC(C)C(=O)N1CCCC1C(=O)O` (stereo not given): 7.47 min; `Cc1ccc(C)c(OCCCC(C)(C)C(=O)O)c1`: 12.8 min.
`CCn1cc(C(=O)O)c(=O)c2cc3c(cc21)OCO3`: the LC retention time is 5.67 min.
Next, `Cc1cc(C2CC2)nc(Nc2ccccc2)n1`: 11.4 min; `CC1(C)SC2C(NC(=O)Cc3ccccc3)C(=O)N2C1C(=O)O` (stereo not given): 7.08 min.
Next, `COc1cc2c(c3oc(=O)c4c(c13)CCOC4=O)C1C=COC1O2` (stereo not given): 6.35 min; `COP(=S)(OC)SCn1nnc2ccccc2c1=O`: 11.5 min.
Then `CCC1OC(=O)CC(O)C(C)C(OC2OC(C)C(OC3CC(C)(O)C(O)C(C)O3)C(N(C)C)C2O)C(CC=O)CC(C)C(=O)C=CC(C)=CC1COC1OC(C)C(O)C(OC)C1OC` (stereo not given), with 8.84 min; and `CC(=O)OC1(C(C)=O)CCC2C3CC(C)C4=CC(=O)CCC4(C)C3CCC21C` (stereo not given), with 11.7 min; and `CC(C)N1C(=O)N(c2ccccc2)CSC1=NC(C)(C)C`, with 13.1 min.
In the case of `CCC(C)C(=O)OC1CC(O)C=C2C=CC(C)C(CCC(O)CC(O)CC(=O)O)C21` (stereo not given), the LC retention time was 9.27 min.
Then `Cc1cc(NS(=O)(=O)c2ccc(N)cc2)no1`, with 3.91 min; and `CNC(=O)CSP(=S)(OC)OC`, with 4.63 min; and `CCn1cc(C(=O)O)c(=O)c2cnc(N3CCNCC3)nc21`, with 2.7 min.
Then `CC(=O)OCC12CC(OC(=O)CC(C)C)C(C)=CC1OC1C(O)C(O)C2(C)C12CO2` (stereo not given), with 9.07 min; and `CCN(CC)c1nc(C)cc(OP(=S)(OC)OC)n1`, with 12 min; and `CNC(C)C(=O)c1ccccc1` (stereo not given), with 2.26 min.
Next, `CCCCCc1cc(O)c2c(c1)OC(C)(C)C1CCC(C(=O)O)=CC21` (stereo not given): 13.9 min; `COC=C(C(=O)OC)c1ccccc1Oc1cc(Oc2ccccc2C#N)ncn1`: 10 min; `CCCOC(=O)c1ccc(O)cc1`: 8.97 min.
As to `NC(=O)N1c2ccccc2C=Cc2ccccc21`, the LC retention time is 8.1 min.
Next, `Cc1c(N)c(=O)n(-c2ccccc2)n1C`: 3.48 min; `CC12CCC3c4ccc(OS(=O)(=O)O)cc4CCC3C1CCC2=O` (stereo not given): 10.6 min; `CCCCC(C)C(OC(=O)CC(CC(=O)O)C(=O)O)C(CC(C)CCCCCCC(O)CC(O)C(C)N)OC(=O)CC(CC(=O)O)C(=O)O` (stereo not given): 11 min.
Next, `C#CC1(O)CCC2C3CCc4cc(O)ccc4C3CCC21C` (stereo not given): 10.1 min; `CCCCC1=NC2(CCCC2)C(=O)N1Cc1ccc(-c2ccccc2-c2nn[nH]n2)cc1`: 10.3 min.
Then `COC(=O)Nc1nc2ccccc2[nH]1`, with 3.89 min.
Turning to `COc1ccc2nc(S(=O)Cc3ncc(C)c(OC)c3C)[nH]c2c1` (stereo not given), the LC retention time was 7.55 min.
Next, `O=C(OC1CC2CCC([NH2+]2)C1C(=O)[O-])c1ccccc1` (stereo not given): 4.3 min; `CN1C2CCC1C(C(=O)O)C(OC(=O)c1ccccc1)C2` (stereo not given): 4.08 min.
Then `CNC(=O)Oc1cccc2ccccc12`, with 7.81 min; and `CCCCC(C)C(OC(=O)CC(CC(=O)O)C(=O)O)C(CC(C)CC(O)CCCCC(O)CC(O)C(C)N)OC(=O)CC(CC(=O)O)C(=O)O` (stereo not given), with 9.48 min.
Next, `CC(C)Cc1ccc(C(C)C(=O)O)cc1` (stereo not given): 11.8 min; `Cc1cc2c(s1)Nc1ccccc1N=C2N1CCN(C)CC1`: 3.44 min; `COCC(=O)N(c1c(C)cccc1C)C(C)C(=O)OC` (stereo not given): 9.09 min.
`CCNc1nc(NC(C)(C)C)nc(SC)n1`: the LC retention time is 10.6 min.
On to `CNC(=O)Oc1cccc2c1OC(C)(C)C2`, for which the LC retention time is 7.48 min.
Take `COc1cc2c(c3oc(=O)c4c(c13)CCC4=O)C1(O)C=COC1O2` (stereo not given): the LC retention time was 6.04 min.
Next, `COC(=O)C1C2CCC(CC1OC(=O)c1ccccc1)N2` (stereo not given): 5.14 min.
Next, `CCNc1nc(NCC)[nH]c(=O)n1`: 2.83 min; `CCSC(=O)N1CCCCCC1`: 10.4 min.
Then `COC(=O)C1C(OC(=O)c2ccccc2)CC2CCC1N2C` (stereo not given), with 4.66 min.
As for `CCCCC(=O)N(Cc1ccc(-c2ccccc2-c2nn[nH]n2)cc1)C(C(=O)O)C(C)C` (stereo not given), the LC retention time was 10.6 min.
Then `O=C1OCCN1N=Cc1ccc([N+](=O)[O-])o1`, with 2.96 min; and `CC1CCCC(=O)CCCC=Cc2cc(O)cc(O)c2C(=O)O1` (stereo not given), with 10.3 min.
Then `CNC(=O)ON=C(C)SC`, with 3.09 min; and `CCNc1nc(NC(C)(C)C)nc(OC)n1`, with 9.07 min; and `CC(=O)OC1(C(C)=O)CCC2C3C=C(C)C4=CC(=O)CCC4(C)C3CCC21C` (stereo not given), with 11.5 min.
Next, `CNC(C)Cc1ccccc1` (stereo not given): 3.05 min.
In the case of `CCCC1CC(C(=O)NC(C(C)O)C2OC(SC)C(O)C(O)C2O)N(C)C1` (stereo not given), the LC retention time was 3.13 min.
Then `CCOP(=S)(OCC)Oc1cc(C)nc(C(C)C)n1`, with 11.9 min.
Next, `CCC(C)(C)C(=O)OC1CC(C)C=C2C=CC(C)C(CCC3CC(O)CC(=O)O3)C21` (stereo not given): 14.2 min; `COc1nc(N)nc(NC(C)(C)C)n1`: 6.25 min.
Next, `Cc1onc(-c2ccccc2)c1C(=O)NC1C(=O)N2C1SC(C)(C)C2C(=O)O` (stereo not given): 8.19 min; `CC(C(=O)O)c1cccc(C(=O)c2ccccc2)c1` (stereo not given): 9.5 min; `C=C1CC2C3C=C(C)C4=CC(=O)CCC4(C)C3CCC2(C)C1(OC(C)=O)C(C)=O` (stereo not given): 11.8 min.
Consider `Cc1cc(C)nc(NS(=O)(=O)c2ccc(N)cc2)n1`, for which the LC retention time is 3.59 min.
For the molecule `CC(N)Cc1ccc2c(c1)OCO2` (stereo not given), the LC retention time is 2.97 min.
Next, `COc1nn(CSP(=S)(OC)OC)c(=O)s1`: 9.06 min; `CC(=O)Nc1ccc(O)cc1`: 2.05 min; `CCNc1nc(NC(C)(C)C)[nH]c(=O)n1`: 5.25 min.
Next, `Nc1ccc(S(=O)(=O)Nc2ncccn2)cc1`: 2.09 min; `Cc1nc(N(C)C)nc(OC(=O)N(C)C)c1C`: 7.79 min; `CC(=O)OCC12CC(OC(=O)CC(C)C)C(C)=CC1OC1C(O)C(OC(C)=O)C2(C)C12CO2` (stereo not given): 10 min.
Then `CCCCOC(=O)c1ccc(O)cc1`, with 10.3 min; and `CCC1OC(=O)C(C)C(OC2CC(C)(OC)C(O)C(C)O2)C(C)C(OC2OC(C)CC(N(C)C)C2O)C(C)(O)CC(C)C(=O)C(C)C(O)C1(C)O` (stereo not given), with 8.5 min.
On to `COc1ccc(C(=O)c2ccccc2)c(O)c1`, for which the LC retention time is 11.1 min.
For the molecule `CC1=CC2OC3C(O)CC(C)(C34CO4)C2(CO)C(O)C1=O` (stereo not given), the LC retention time was 2.83 min.
Next, `CCOP(=S)(OCC)Oc1ccc(=O)n(-c2ccccc2)n1`: 10.7 min.
